What was measured:
eye = conditions: OECD TG 405; cited from earlier work
guinea pig skin = conditions: female, Slc:Hartley, in vivo
Description: To find information related to the skin sensitization of a chlorous acid aqueous solution formulation, a Maximization Test was conducted using 20 female Slc:Hartley guinea pigs (SPF). […] In the test substance treatment group, 0.2 w/v % test substance solution (medium: distilled water) was intradermally injected in the first sensitization treatment using 10 animals, and a closed patch of 100% test substance solution (undiluted solution) was applied for 48 hours in the second sensitization treatment. A closed patch of 20 w/v % test substance solution was applied for 24 hours for elicitation treatment.
The prepared administered solutions (1) to (3) (section 14.9.1) of each test group were intradermally injected at 0.1 mL each to correspond to administration sites (1) to (3) in image 1.
The chest and back (image 1, site (4)) of an animal were shaved using an electric clipper and shaver on day 7. Open patch of 10% sodium dodecyl sulfate mixture (section 14.9.2) was applied thinly and homogeneously at the same site to a test substance treatment group and negative control group. […]
The body weight was measured before starting sensitization treatment (day 0) and the day of completion of observation of elicitation treatment sites (day 25). […]
The skin sensitization rate is calculated as [(number of sensitization positive animals/number of animals used)×100].

rabbit skin = assay: Skin irritability test using rabbits (OECD 404); format: in vivo; conditions: 0.5 mL patch, 4 hours exposure
Description: To study the skin irritability and corrosiveness of a chlorous acid aqueous solution formulation, a skin irritability test was conducted using three female Kbl:NZW rabbits. The irritability reaction was compared by setting a three rabbit sodium hypochlorite formulation treatment group as a comparative control group. 0.5 mL of test substance was applied homogenously to a lint patch and exposed 4 hours to the skin on the back of the rabbits. […] In addition, the body weight before administration and at the end of observation was measured.
For administration, 0.5 mL of test substance was spread homogeneously on the lint surface of a 2.45×2.45 cm patch (lint cloth, Hasegawa Menkou) by using a MICROMAN (model M1000, Gilson), and then applied to the back skin of animals using a paper adhesive tape (KENZ). Furthermore, the entire treatment site was covered with a large lint cloth (Hasegawa Menkou), which was secured with an adhesive bandage (New-HALE, Hasegawa Menkou). Exposure time was 4 hours. The patch was removed after completion of exposure. […]
Erythema, eschar formation, and edema at sites of administration were observed 1, 24, 48, and 72 hours after patch removal, and scored in accordance with determination criteria for skin reactions (Draize, 1959). […]
The body weight was measured on the administration date (before administration) and date of completion of observation for all tested animals. […]

| Number of animals showing the sign: General condition, No abnormality observed (guinea pig skin) | Number of positive animal (guinea pig skin) | SMILES | Severe injury to eye or eye irritability (GHS category) (eye) | GHS hazard category of dermal irritation/corrosion (rabbit skin) |
| --- | --- | --- | --- | --- |
| – | – | CCO [Ethanol 95 v/v %, Ethanol] | Category 2B | – |
| 0 | 5 | CCCCCCC(C=O)=Cc1ccccc1 [HCA, α-Hexylcinnamaldehyde] | – | – |
| – | – | OCl [Sodium hypochlorite, sodium hypochlorite] | Category 1 | Category 1 |

From patent publication US20220331467A1, “HALAL DISINFECTANT LIQUID” (priority 2019, published 2022)
